Results: ChEMBL document CHEMBL1149238, “A novel mixed-ligand antimycobacterial dimeric copper complex of ciprofloxacin and phenanthroline” (2004)

Tested on: Mycolicibacterium smegmatis
Experiment: Antimycobacterial activity was determined against Mycobacterium smegmatis
Format: functional

O=C(O)c1cn(C2CC2)c2cc(N3CCNCC3)c(F)cc2c1=O [CIPROFLOXACIN]
Log of inhibitory zone: 1.28 log mm
